Columns and labels:
[1] = Effect of senolytic ABT-263 on lifespan and kidney function in aging hematopoietic Uty-KO mice; assay type: in vivo
Source text: FIGS. 28A-28C. The effect of the senolytic ABT-263 on lifespan and kidney function in aging hematopoietic Uty-KO mice. FIG. 28A. Exemplary model of ABT-263 mice. FIGS. 28B and 28C.
FIGS. 28A-28C show the effect of the senolytic ABT-263 on lifespan and kidney function in aging hematopoietic Uty-KO mice, using an exemplary model of ABT-263 mice.

[2] = tested on: centromere of the Y chromosome; assay: Y chromosome ablation efficiency by FISH analysis of tRFP-positive blood cells; assay type: cell-based; settings: tRFP-positive blood cells from reconstituted mice
Source text: Plasmids. Single guide RNAs (sgRNA) targeting the centromere of the Y chromosome (gRNA1, gRNA2) were from a previous report (Adikusuma et al., 2017), and the control gRNA is non-targeting. sgRNA sequences are listed in Table 4. Single stranded sgRNA sequences were annealed and cloned into pLKO.sgRNA.EFS.tRFP following restriction digestion with Esp3I, and successful cloning was confirmed by Sanger sequencing with U6 primer (Table 4). Plasmids were from Addgene (pLKO5.0.sgRNA.EFS.tRFP, plasmid #57823; psPAX2; plasmid #12260; and pMD2.G, plasmid #12259).
Ex vivo genome editing of HSPC. sgRNAs were delivered lentivirally to bone marrow lineage-negative cells obtained from ROSA26Cas9 knock-in mice as described previously (Sano et al., 2019).
Fluorescence in situ hybridization (FISH). […] 200 interphase nuclei were analyzed by two technologists using an Olympus fluorescence microscope (model BX-41).
We constructed a mouse model of hematopoietic mLOY by employing CRISPR/Cas9 gene editing to target repeat DNA sequences that are specific to the centromere of the Y chromosome. […] Two LOY-gRNAs (LOY-gRNA1 and 2) targeting different repeat sequences within the centromere were evaluated for the efficiency of Y chromosome ablation by fluorescent in situ hybridization (FISH) analysis of X and Y chromosome in tRFP-positive blood cells collected from mice reconstituted with bone marrow cells. […]

Row | Compound | progression of renal dysfunction [1] | survival [1] | Y chromosome ablation efficiency [2]
1 | CC1(C)CCC(c2ccc(Cl)cc2)=C(CN2CCN(c3ccc(C(=O)NS(=O)(=O)c4ccc(N[C@H](CCN5CCOCC5)CSc5ccccc5)c(S(=O)(=O)C(F)(F)F)c4)cc3)CC2)C1 [ABT-263] | suppressed the progression of renal dysfunction | promoted survival | 
2 | LOY-gRNA1: guide RNA targeting a repeat sequence in the centromere of the Y chromosome, SEQ ID NOs: 1-2 (guide 1 CACCGGAGUUAAUAUAAAAAACA; guide 2 AAACUGUUUUUUAUAUUAACUCC; listed as RNA, chemistry not fully specified) |  |  | approximately 95%
